The test system of data set [1] is Colon 38 tumours. Kind of data set: Tumour growth delay, Colon 38 tumours in mice, combination with DMXAA. The class given is in vivo. An excerpt:
Mice (C57B1/6 bred at the Animal Resources Unit, University of Auckland, New Zealand) were implanted with Colon 38 tumours, obtained originally from the Mason Research Institute (Auckland, New Zewaland) by transferring 1 mm^3 pieces of the tumour into a subcutaneous opening in the left flank of anaesthetized mice. The mice with tumours were used for growth delay experiments when tumours had reached approximately 3-5 mm in diameter. Mice were divided into 10 groups, an untreated control group, a group treated intraperitoneally (i.p.) with DMXAA (5,6-dimethylxanthenone-4-acetic acid, synthesized at the Auckland Cancer Society Research Centre—ACSRC (Auckland, New Zealand) at 25 mg/kg only, and 8 groups treated with DMXAA together with the hydrolytic thalidomide metabolites PG, PiG, CG also synthesized at the ACSRC as previously described (Lu et al, 2003), or thalidomide at 100 mg/kg, or together with CG or thalidomide at 20 mg/kg or 4 mg/kg. DMXAA was dissolved in saline at 2.5 mg/ml and injected i.p. into mice in a volume of 10 μl/g body weight. Thalidomide, PG, PiG and CG were dissolved in dimethylsulphoxide at 40, 8 or 1.6 mg/ml (for dosages of 100, 20, 4 mg/kg respectively) and injected i.p. in a volume of 2.5 μl/g body weight. Tumours were measured 2-3 times weekly after treatment and tumour volumes were calculated as 0.52×a^2×b, where a and b are the minor and major axes of the tumour. The arithmetic means and standard errors were calculated for each point, counting cured animals as having zero tumour volume, and expressed as fractions of the pre-treatment volume. Growth delay was determined as the difference in the number of days required for the tumour to reach four times the pre-treatment volume.

The test system of data set [2] is TNF. Kind of data set: LPS-induced TNF production by HPBL in culture. The class given is cell-based, human. The settings on record: FIG. 5. How it is done: Blood (20 ml) each from seven healthy volunteers was collected into heparinized tubes, and was overlayed on top of 10 ml of Ficoll-Paque Plus (Amersham Biosciences AB, Uppsala, Sweden) in 50 ml Falcon polypropylene conical tubes (Becton Dickson Labware, Franklin Lakes, N.J.). The tubes were centrifuged for 30 min at 300×g and 4° C., and the layer of cells was removed and re-suspended at 1×10^6 cells/ml in A-MEM medium supplemented with foetal bovine serum (Moregate BioTech Ltd, Hamilton, New Zealand) (10% v/v), streptomycin sulphate (100 μg/ml) and penicillin-G (100 units/ml) (Sigma, St Louis, Mo., USA). Cells were added to a 24-well plate (Nunc, Kamstrup, Roskilde, Denmark) with LPS (Escherichia coli serotype 055:B5; Sigma, St. Louis, Mo., USA) plus thalidomide or CG at 0.04, 0.2, 1, 5, 25 & 100 μg/ml; or PG or PiG at 1, 5 & 25 μg/ml in a final volume of 1 ml. Wells containing cells only and cells plus LPS only were included as controls. After 12 hours of incubation, supernatants were removed and assayed immediately for TNF as described in section 4.
TNF was assayed using a commercially available ELISA kit (OpEIA human or murine TNF kit, PharMingen, San Diego, Calif., USA), according to the manufacturer's instructions. Briefly, samples (100 μl/well) in duplicate together with a serial dilution of TNF (31.25-2000 pg/ml) for the standard curve, were added to flat-bottom 96-well plates pre-coated with immobilised monoclonal anti-TNF antibody and incubated at room temperature for 2 h. The wells were then washed, biotinylated polyclonal antibody to TNF was added, followed by peroxidase-labelled streptavidin, and incubated at room temperature for 1 h. The wells were washed again, and the substrate, tetramethylbenzidine and hydrogen peroxide was added and after 10 min the reaction was stopped with 2 N sulphuric acid. The absorbance at 450 nm was determined using a microtitre plate reader.

Data set [3] can be described thus: Stability of CG in PBS at different pH (HPLC). The class given is physicochemical. How it is done:
CG (50 μM) with 60 μM of phenacetin (as an internal standard) at pH 3.5, 6.8, 7.1, 7.4, 7.7 and 8 in 8 mm clear polyethylene starburst conical snap vials (Alltech, Deerfield, Ill., USA), was incubated in the autosampler (Waters Associates, Milford, Mass., USA) at 37° C. Aliquots (50 μl) of the solutions were then automatically loaded at 0, 6, 12, 18 and 24 hours after incubation onto a Waters Breeze chromatograph (Waters Associates, Milford, Mass., USA) which consisted of a Model 717plus autosampler, Model 1525 binary pump and Model 2487 dual wavelength absorbance detector.
Compounds were separated using a previously described (Chung et al, 2004) HPLC assay for thalidomide using a 100×4.6 mm stainless steel Luna 5 μm Phenylhexyl column (Phenomenex, Torrance, Calif., USA) and a mobile phase (Milli Q water:acetonitrile 10:1.3 v/v) that was pumped at a flow rate of 2 ml/min. Thalidomide and phenacetin were detected at ultraviolet wavelengths of 220 and 248 nm, respectively. The retention times of phenacetin and thalidomide and were 13 and 11 min, respectively. Data acquisition and integration was achieved using Breeze™ Software, Milford, Calif., USA. Each HPLC run included standard curves of thalidomide (0.6-100 μM) or CG (0.2-50 μM) with phenacetin (60 μM) as the internal standard in PBS. […] The r^2 of calibration curves of thalidomide was 0.9995, and for CG calibration curves was 0.9999. The intra-assay recovery was 90-110% (n=8) and the CV was 5-9% (n=4), while the inter-assay recovery was 96-104% (n=15) and the CV was 2-4% (n=6).
To construct the calibration curve, the peak-area ratios to the internal standard were plotted against thalidomide concentration and the best-fit straight line was obtained by linear regression analysis. The correlation coefficient of the calibration curves had r^2 values of greater than 0.9995. The thalidomide/phenacetin peak ratio was determined for all samples and the concentration of thalidomide in each sample was determined from the calibration curve.
The ratio of the area of the thalidomide peak or the CG peak to that of the phenacetin peak in the HPLC chromatographs then calculated and the concentration of thalidomide and CG was determined using the calibration curve. The percentage degradation of CG was calculated as: [1-(CG concentration after incubation/starting concentration)]×100.

This is an account of results in patent US20080167272A1, “Thalidomide metabolites and methods of use” (Auckland Uniservices Limited, priority 2005, published 2008).

The structures appear in SMILES notation.

Take `O=C1CCC(NC(=O)c2ccccc2C(=O)O)C(=O)N1` (stereo not drawn) [CG, 2-{[(2,6-Dioxo-3-piperidinyl)amino]carbonyl}benzoic acid]: the “potentiation of DMXAA-induced anti-tumour effects” value in data set [1] (4 mg/kg co-administered with DMXAA 25 mg/kg, FIG. 1C) is reported as “neither CG nor thalidomide showed potentiation”. The “tumour volumes at 21 days after treatment compared with DMXAA alone” value in data set [1] (4 mg/kg co-administered with DMXAA 25 mg/kg, FIG. 2) is given as “no significant difference”; in data set [1] (100 mg/kg co-administered with DMXAA 25 mg/kg, FIG. 2), “significantly smaller tumour volumes than those treated by DMXAA alone”. Besides, in data set [1] (20 mg/kg co-administered with DMXAA 25 mg/kg, FIG. 1B), the “potentiation of DMXAA activity against Colon 38 tumours” value is listed as “more effective than thalidomide plus DMXAA or DMXAA alone”. Moreover, in data set [1] (20 mg/kg co-administered with DMXAA 25 mg/kg, FIG. 2), the “tumour volume at 21 days after treatment compared with DMXAA alone” value is given as “significantly smaller tumour volume than those treated by DMXAA alone”. For the same compound, in data set [1] (100 mg/kg i.p. co-administered with DMXAA 25 mg/kg, FIG. 1A), the “inhibition of tumour growth compared with DMXAA alone” value was “greater inhibition of tumour growth than that of DMXAA alone”. Also, the “tumour growth inhibition compared with thalidomide” value in data set [1] (doses at or above 20 mg/kg, combined with DMXAA, FIGS. 1 & 2) is “greater tumour growth inhibition than thalidomide”. Further, the “effect on LPS-induced TNF production” value in data set [2] (HPBL, LPS 100 pg/ml, 12 h, all concentrations tested (PG, PiG: 1, 5, 25 μg/ml)) is recorded as “significantly decreased LPS-induced TNF levels in a dose-dependent manner”. In addition, in data set [2] (human cell system), the “TNF inhibition in vitro compared with thalidomide” value is “as active as thalidomide”. Also, the stability in solution result in data set [3] (low pH) is recorded as “unstable”; in data set [3] (pHs between 6.8-7.4), “stable”. Moreover, the “CG remaining in the solution after 24 h” value in data set [3] (pH 3.5, 37° C.) came out at 21.5%; in data set [3] (pH 7.7, 37° C.), 8.6%; in data set [3] (pH 8, 37° C.), 0%. In addition, the “CG transformed into thalidomide” value in data set [3] (pH 3.5, 24 h incubation) amounted to 42%. Also, in data set [3] (pH 6.8, 7.1, 7.4, 7.7 or 8), the “thalidomide in CG solutions after incubation” value is “not detected”. Also, the “CG remaining in solution after 24 h” value in data set [3] (pH 6.8, 37° C.) was 81.75%; in data set [3] (pH 7.1, 37° C.), 50.1%; in data set [3] (pH 7.4, 37° C.) it was 46.6%. The “stability compared with thalidomide” value in data set [3] (physiological conditions) is reported as “more stable than thalidomide”. Further, the CG degraded in data set [3] (physiological conditions, after 6 h) is 1.3-20%.
